Test results reported in patent US20220249463A1, “METHODS OF ALTERING CARDIAC REMODELING USING COMPOUNDS THAT PROMOTE GLUCOSE OXIDATION” (IMBRIA PHARMACEUTICALS, INC., priority 2019, published 2022).

Experiments:
[1] = tested on: TAC mice; experiment: TAC mice, six weeks treatment: heart weight and heart weight/body weight; format: in vivo; settings: 6 weeks
[2] = tested on: TAC mice; experiment: TAC mice: cardiac fibrosis, Masson's trichrome; format: in vivo; settings: end of 6-week experiment
[3] = Stability of CV-8972 forms in solvents, X-ray powder diffraction; format: physicochemical
Protocol: Samples from batch 289-MBA-15-A (containing form B) were added to various solvents, incubated under various conditions, and analyzed by X-ray powder diffraction.
Samples from batch 289-MBA-16 (containing forms A and B) were added to various solvents, incubated under various conditions, and analyzed by X-ray powder diffraction.
Samples from batch S-18-0030513 (containing form A) were added to various solvents, incubated under various conditions, and analyzed by X-ray powder diffraction.

[4] = tested on: TAC mice; experiment: TAC mice: echocardiography; format: in vivo

- XRPD results ([3]; batch 289-MBA-15-A (containing form B), ACN/H2O (90:10) Aw = 0.83, Slurry, RT, 5 d): Form A
- XRPD results ([3]; batch 289-MBA-15-A (containing form B), Acetone/H2O (90:10) Aw = 0.72, Slurry, RT, 5 d): Form A
- XRPD results ([3]; batch 289-MBA-15-A (containing form B), EtOAc/H2O (97:3) Aw = 0.94, Slurry, RT, 5 d): Form A
- XRPD results ([3]; batch 289-MBA-15-A (containing form B), EtOAc, Slurry, RT, 5 d): Form A + Form B
- XRPD results ([3]; batch 289-MBA-15-A (containing form B), EtOH/H2O (90:10) Aw = 0.52, Slurry, RT, 5 d): Form A
- XRPD results ([3]; batch 289-MBA-15-A (containing form B), EtOH, CC from 60° C.): Form C + minor Form A
- XRPD results ([3]; batch 289-MBA-15-A (containing form B), EtOH, Slurry, RT, 3 d): Form A + Form B
- XRPD results ([3]; batch 289-MBA-15-A (containing form B), IPA/H2O (90:10) Aw = 0.67, Slurry, RT, 5 d): Form A
- XRPD results ([3]; batch 289-MBA-15-A (containing form B), IPA/H2O (98:2) Aw = 0.26, Slurry, RT, 5 d): Form A
- XRPD results ([3]; batch 289-MBA-15-A (containing form B), MEK, Slurry, RT, 5 d): Form A
- XRPD results ([3]; batch 289-MBA-15-A (containing form B), MeOH/H2O (80:20) Aw = 0.48, Slurry, RT, 5 d): Form A
- XRPD results ([3]; batch 289-MBA-15-A (containing form B), MeOH/H2O (95:5) Aw = 0.16, Slurry, RT, 5 d): Form A
- XRPD results ([3]; batch 289-MBA-15-A (containing form B), MeOH, Slurry, RT, 5 d): Form A + Form B
- XRPD results ([3]; batch 289-MBA-15-A (containing form B), no solvent, 100° C., 20 minutes, result wraps over r24-r26: Form B, shifted with minor Form A): Form B,
- XRPD results ([3]; batch 289-MBA-16 (containing forms A and B), EtOAc, Attempted to dissolve at ~60° C., solids remained, cooled slowly to RT, let stir at RT from 60° C. (Table 60)): Form A + Form B
- XRPD results ([3]; batch 289-MBA-16 (containing forms A and B), EtOAc, SC from 60° C. (Table 63)): Form A + Form B
- XRPD results ([3]; batch 289-MBA-16 (containing forms A and B), EtOH, SC from 60° C.): Form A + Form C
- XRPD results ([3]; batch 289-MBA-16 (containing forms A and B), EtOH, Slurry, RT, 3 d (Table 60)): Form A + Form B
- XRPD results ([3]; batch 289-MBA-16 (containing forms A and B), EtOH, Slurry, RT, 3 d (Table 63)): Form A + Form B
- XRPD results ([3]; batch 289-MBA-16 (containing forms A and B), MeOH/H2O (95:5), Slurry, overnight, 1 g scale): Form A
- XRPD results ([3]; batch 289-MBA-16 (containing forms A and B), MeOH, VD w/ MTBE (Table 63)): Form A
- XRPD results ([3]; batch 289-MBA-16 (containing forms A and B), MeOH, Vapor diffusion w/ MTBE (Table 60)): Form A
- XRPD results ([3]; batch 289-MBA-16 (containing forms A and B), THF, SC from 60° C.): Form B
- XRPD results ([3]; batch S-18-0030513 (containing form A), CHCl3, Slurry, RT): Form A
- XRPD results ([3]; batch S-18-0030513 (containing form A), EtOAc, Slurry, RT): Form A
- XRPD results ([3]; batch S-18-0030513 (containing form A), EtOH, Crash cool from 70° C.): Form A + Form C
- XRPD results ([3]; batch S-18-0030513 (containing form A), MEK/H2O 99:1, Slow cool from 70° C.): Form A
- XRPD results ([3]; batch S-18-0030513 (containing form A), THF, Slurry, RT): Form A
- XRPD results ([3]; batch S-18-0030513 (containing form A), no solvent, 80° C., 20 minutes): Form A with slight peak shifting
- XRPD results ([3]; batch S-18-0030513 (containing form A), no solvent, 97% RH Stress of Form A dried at 80° C. for 20 min): Form A
- XRPD results ([3]; batch S-18-0030513 (containing form A), no solvent, 100° C., 20 minutes): Form B + Form A, shifted
- XRPD results ([3]; batch S-18-0030513 (containing form A), no solvent, VO, RT): Form A
SMILES: COc1ccc(CN2CCN(CCOC(=O)c3cccnc3)CC2)c(OC)c1OC [CV-8972, 2-(4-(2,3,4-trimethoxybenzyl)piperazin-1-yl)ethyl nicotinate]
- cardiac remodeling in TAC mice (in words) ([1]; TMZ 6, NA 2.4, CV-8814 7.5, CV-8972 10 mg/kg/day): effectively inhibited cardiac remodeling
- cardiac mass ([1]; TAC mice, TMZ 6, CV-8814 7.5, CV-8972 10 mg/kg/day, osmotic minipump): 225 ± 11 mg
- heart weight to body weight ratio ([1]; TAC mice, TMZ 6, NA 2.4, CV-8814 7.5, CV-8972 10 mg/kg/day, subcutaneous osmotic minipump): 7.4 ± 0.3 mg/g
- cardiac fibrosis (fibrotic area to whole heart tissue area) [2]: 6.6±0.6%
- EF (in words) ([4]; 3-weeks after TAC): significantly increased
- IVRT ([4]; 3-weeks after TAC): 32 ± 1 ms
- IVSd ([4]; 3-weeks after TAC): 1.29±0.04 mm
- LV mass ([4]; 3-weeks after TAC): 154 ± 8 mg
- left ventricular FS ([4]; 3-weeks after TAC, CV-8814 7.5, CV-8972 10 mg/kg/day): 47%±3%
- IVRT ([4]; 6-weeks after TAC): 31 ± 2 ms
- IVSd ([4]; 6-weeks after TAC): 1.26±0.04 mm
- LV mass ([4]; 6-weeks after TAC): 156 ± 10 mg
- left ventricular FS ([4]; 6-weeks after TAC (end of the experiment)): 46%±3%
- cardiac functions in TAC mice (in words) ([4]; conclusion, 6 weeks treatment): improved cardiac functions
- EF (in words) ([4]; to the end of the study (6 weeks)): protective effect was sustained to the end of the study
